# Source: patent US20120100564A1, “Prediction of Memapsin 2 Cleavage Sites” (priority 2010, published 2012)
# Peptide text beside a SMILES is read from it.
# Legend:
# [1] = tested on: γ-secretase; assay: CTF99 level in APP-transfected CAD cells with γ-secretase inhibitor (Western blot); format: cell-based, mouse; settings: in both APPIDF and APPSW cells
# Protocol: Cell culture, transfection and analysis of APP processing products. Mouse neuronal CAD cell line was cultured with DMEM/F12 media (Invitrogen, Carlsbad, Calif.) containing 10% fetal bovine serum and 2% penicillin/streptomycin. Transient trransfections were performed using Fugene HD (Roche, Sweden) according to the manufacture's instruction. 24 hours later after transfection, total cell lysate and cell media were collected and 1% of Protease inhibitor was added (Calbiochem, Gibbstown, N.J.). Aβ level in media was assayed by Aβ [1-40] Human Fluorimetric ELISA Kit (invitrogen, Carlsbad, Calif.). Conditioned media or total cell lysate from the transiently transfected cells were subjected to 10% or 10-20% tricine SDS-PAGE gels (Invitrogen, Carlsbad, Calif.), and transferred to PVDF membranes. The blots were probed with antibodies. The western blot analysis was used for determining the levels of full-length APP, APP's proteolytic products and β-actin.
# APPIDF and APPSW cells were also similar in cellular processing characteristics. […] CTF99 is increased in both APPIDF and APPSW cells when γ-secretase inhibitor DAPT slowed its degradation (FIG. 4A, second line, right lanes). As expected, APP ectodomain fragment from α-secretase cleavage, sAPPα, decreased in both APPIDF and APPSW cells as compared to that in APPWT cells (FIG. 4A, fourth panel).
# [2] = target: T1, human memapsin 2 (Homo sapiens, UniProt P56817); assay: Determination of kcat/KM of memapsin 2 substrate peptides (steady-state kinetics and competitive hydrolysis, ESI LC/MS); format: biochemical; settings: steady-state kinetics, substrate 5 μM to 150 μM, pH 4.0, 37° C.
# T1 construct: The ecto-domain of human memapsin 2 was expressed and purified as described previously (Hong et al., 2000); made in house
# T1 sequence (P56817 46-457 limits assumed): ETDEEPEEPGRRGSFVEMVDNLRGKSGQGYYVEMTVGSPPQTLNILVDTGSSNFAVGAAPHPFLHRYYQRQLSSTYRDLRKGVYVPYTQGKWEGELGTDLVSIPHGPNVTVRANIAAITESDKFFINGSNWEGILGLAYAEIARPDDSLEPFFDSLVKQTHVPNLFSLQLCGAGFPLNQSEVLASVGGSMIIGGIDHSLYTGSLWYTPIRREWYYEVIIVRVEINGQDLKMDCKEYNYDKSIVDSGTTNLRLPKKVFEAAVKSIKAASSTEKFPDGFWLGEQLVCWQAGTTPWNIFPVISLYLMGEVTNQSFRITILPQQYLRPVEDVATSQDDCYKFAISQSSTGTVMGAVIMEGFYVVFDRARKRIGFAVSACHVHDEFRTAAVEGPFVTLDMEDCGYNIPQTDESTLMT
# Source text: Materials. α-cyan-4 hydroxycinnamic acid, D0- and D6-form acetic anhydride , N-hydroxysuccinimide were purchased from Sigma. Peptide (Des-Ser1)-Cerebellin was purchased from Bachem (Bubendorf, Switzerland). All peptides derived from memapsin 2 potential substrates were synthesized by GenScript (Piscataway, N.J.). The ecto-domain of human memapsin 2 was expressed and purified as described previously (Hong et al., 2000). Monoclonal anti-memapsin 2 antibody 3E7 was purchased from Santa Cruz Biotechnology Inc (Santa Cruz, Calif.). Monoclonal anti-APP antibody 1560, MAB348 and polyclonal anti-APP antibody 5352 were purchased from Millipore (Billerica, Mass.). Monoclonal anti-actin antibody was purchased from Abcam (Cambridge, Mass.).
# Determination of kcat/KM of different memapsin 2's substrates. […] Initial velocity was determined by ESI LC/MS, in which the product an substrate peak areas were quantitated. The kinetic parameters, kcat and KM were determined from non-linear regression using Grafit software (Surrey, UK). […] Relative kcat/KM of different substrates were determined by comparing the initial hydrolysis rates to that of VGSC beta 2.
# Comparison of the kinetics for peptides derived from memapsin 2 protein substrates. […] The relative kcat/KM values of other twelve peptides were determined from their relative pseudo-first-order hydrolytic rates. […]
Km [2],Compound,CTF99 level [1]
,C[C@H](NC(=O)Cc1cc(F)cc(F)c1)C(=O)N[C@H](C(=O)OC(C)(C)C)c1ccccc1 [DAPT],increased
36.4 µM,CC[C@H](C)[C@H](NC(=O)[C@H](CCCCN)NC(=O)CNC(=O)[C@H](Cc1c[nH]cn1)NC(=O)CNC(=O)[C@@H](N)CCCNC(=N)N)C(=O)N[C@@H](Cc1ccc(O)cc1)C(=O)N[C@@H](CC(C)C)C(=O)N[C@@H](CCC(N)=O)C(=O)N[C@H](C(=O)N[C@@H](CC(C)C)C(=O)N[C@@H](CC(C)C)C(=O)O)C(C)C [VGSC-β2] (H-RGHGKIYLQVLL-OH),
